Legend:
FLK-1 receptor = molecular target: T1, FLK-1 receptor (Mus musculus, UniProt P35918); test: ELISA assay measuring the kinase activity of the FLK-1 receptor in cells engineered to express FLK-1; format: cell-based; details: NIH3T3 C7#3 FLK-1 expressing cells, VEGF stimulation, phosphotyrosine ELISA
T1 construct: expressed in transfected cells; host or cells: NIH3T3 C7#3
Procedure: An ELISA assay was conducted to measure the kinase activity of the FLK-1 receptor and more specifically, the inhibition or activation of TK activity on the FLK-1 receptor. Specifically, the following assay was conducted to measure kinase activity of the FLK-1 receptor in cells genetically engineered to express FLK-1.
(11) NIH3T3 C7#3 Cells (FLK-1 expressing cells);
The following protocol was used for conducting the assay:
1. Coat Corning 96-well elisa plates with 1.0 μg per well Cappel Anti-rabbit IgG antibody in 0.1 M Na2CO3 pH 9.6. Bring final volume to 150 μL per well. Coat plates overnight at 4° C. Plates can be kept up to two weeks when stored at 4° C.
2. Grow cells in Growth media (DMEM, supplemental with 2.0 mM L-Glutamine, 10% FBS) in suitable culture dishes until confluent at 37° C., 5% CO2.
3. Harvest cells by trypsinization and seed in Corning 25850 polystyrene 96-well roundbottom cell plates, 25.000 cells/well in 200 μL of growth media.
4. Grow cells at least one day at 37° C., 5% CO2.
5. Wash cells-with D-PBS 1×.
6. Add 200 μL/well of starvation media (DMEM, 2.0 mM 1-Glutamine, 0.1% FBS). Incubate overnight at 37° C., 5% CO2.
7. Dilute Compounds 1:20 in polypropylene 96 well plates using starvation media. Dilute dimethylsulfoxide 1:20 for use in control wells.
8. Remove starvation media from 96 well cell culture plates and add 162 μL of fresh starvation media to each well.
9. Add 18 μL of 1:20 diluted Compound dilution (from step 7) to each well plus the 1:20 dimethylsulfoxide dilution to the control wells (+/− VEGF), for a final dilution of 1:200 after cell stimulation. Final dimethylsulfoxide is 0.5%. Incubate the plate at 37° C., 5% CO2 for two hours.
10. Remove unbound antibody from ELISA plates by inverting plate to remove liquid. Wash 3 times with TBSW+0.5% ethanolamine, pH 7.0. Pat the plate on a paper towel to remove excess liquid and bubbles.
11. Block plates with TBSW+0.5% Ethanolamine, pH 7.0, 150 μL per well. Incubate plate thirty minutes while shaking on a microliter plate shaker.
12. Wash plate 3 times as described in step 10.
13. […] Bring final volume to 150 μL/well with TBSW+0.5% ethanolamine pH 7.0. Incubate plate for thirty minutes while shaking.
14. Add 180 μL starvation medium to the cells and stimulate cells with 20 μL/well 10.0 mM sodium ortho vanadate and 500 ng/mL VEGF (resulting in a final concentration of 1.0 mM sodium ortho vanadate and 50 ng/mL VEGF per well) for eight minutes at 37° C., 5% CO2. Negative control wells receive only starvation medium.
15. After eight minutes, media should be removed from the cells and washed one time with 200 μL/well PBS.
16. Lyse cells in 150 μL/well HNTG while shaking at room temperature for five minutes. HNTG formulation includes sodium ortho vanadate, sodium pyro phosphate and EDTA.
17. Wash ELISA plate three times as described in step 10.
18. Transfer cell lysates from the cell plate to ELISA plate and incubate while shaking for two hours. To transfer cell lysate pipette up and down while scrapping the wells.
19. Wash plate three times as described in step 10.
20. Incubate ELISA plate with 0.02 μg/well UB40 in TBSW+05% ethanolamine. Bring final volume to 150 μL/well. Incubate while shaking for 30 minutes.
21. Wash plate three times as described in step 10.
22. Incubate ELISA plate with 1:10,000 diluted EIA grade goat anti-mouse IgG conjugated horseradish peroxidase in TBSW+0.5% ethanolamine, pH 7.0. Bring final volume to 150 μL/well. Incubate while shaking for thirty minutes.
23. Wash plate as described in step 10.
24. Add 100 μL of ABTS/H2O2 solution to well. Incubate ten minutes while shaking.
25. Add 100 μL of 0.2 M HCl for 0.1 M HCl final to stop the color development reaction. Shake 1 minute at room temperature. Remove bubbles with slow stream of air and read the ELISA plate in an ELISA plate reader at 410 nm.
(§1) The IC50 values were measured for several of the compounds of the invention.

[1] = tested on: FGF-induced BrdU incorporation; test: FGF-induced BrdU incorporation assay; format: cell-based; details: read-out: FGF-Induced BrdU Incorp. IC50
Procedure: (§2) PDGF-, FGF-, and EGF-Induced BRDU Incorporation Assay
(§3) 1. Cells were seeded at 8000 cells/well in DMEM, 10% CS, 2 mM Gln in a 96 well plate. Cells were incubated overnight at 37° C. in 5% CO2.
(§4) 2. After 24 hours, the cells were washed with PBS, and then were serum starved in serum free medium (0% CS DMEM with 0.1% BSA) for 24 hours.
(§5) 3. On day 3, ligand (PDGF=3.8 nM, prepared in DMEM with 0.1% BSA) and test compounds were added to the cells simultaneously. The negative control wells received serum free DMEM with 0.1% BSA only; the positive control cells received the ligand (PDGF) but no test compound. Test compounds were prepared in serum free DMEM with ligand in a 96 well plate, and serially diluted for 7 test concentrations.
(§6) 4. After 20 hours of ligand activation, diluted BrdU labeling reagent (1:100 in DMEM, 0.1% BSA) was added and the cells were incubated with BrdU (final concentration=10 μM) for 1.5 hours.
(§7) 5. After incubation with labeling reagent, the medium was removed by decanting and tapping the inverted plate on a paper towel. FixDenat solution was added (50 μL/well) and the plates were incubated at room temperature for 45 minutes on a plate shaker.
(§8) 6. The FixDenat solution was thoroughly removed by decanting and tapping the inverted plate on a paper towel. Milk was added (5% dehydrated milk in PBS, 200 μL/well) as a blocking solution and the plate was incubated for 30 minutes at room temperature on a plate shaker.
(§9) 7. The blocking solution was removed by decanting and the wells were washed once with PBS. Anti-BrdU-POD solution (1:100 dilution in PBS, 1% BSA) was added (100 μL/well), and the plate was incubated for 90 minutes at room temperature on a plate shaker.
(§10) 8. The antibody conjugate was thoroughly removed by decanting and rinsing the wells 5 times with PBS, and the space was dried by inverting and tapping on a paper towel.
(§11) 9. TMB substrate solution was added (100 μL/well) and incubated for 20 minutes at room temperature on a plate shaker until color development was sufficient for photometric detection.
(§12) 10. The absorbance of the samples were measured at 410 nm (in “dual wavelength” mode with a filter reading at 490 nm, as a reference wavelength) on a Dynatech ELISA plate reader.
(§13) The IC50 values were measured for several of the compounds of the invention. These values are depicted in Table 10.

[2] = tested on: EGF-induced BrdU incorporation; test: EGF-induced BrdU incorporation assay; format: cell-based; details: read-out: EGF-Induced BrdU Incorp. IC50
Procedure: as §2, §3, §4, §5, §6, §7, §8, §9, §10, §11, §12, §13

[3] = tested on: 3T3 cell line genetically engineered to express human PDGF-R; test: PDGF-induced BrdU incorporation assay; format: cell-based; details: NIH3T3; 3T3 cells expressing human PDGF-R, PDGF 3.8 nM; read-out: PDGF-Induced BrdU Incorp. IC50
Procedure: (1) PDGF: human PDGF B/B; 1276-956, Boehringer Mannheim, Germany
(8) 3T3 cell line genetically engineered to express human PDGF-R.
as §3, §4, §5, §6, §7, §8, §9, §10, §11, §12, §13

[4] = molecular target: Myc-GyrB-FGFR fusion protein (Homo sapiens, UniProt P11362); test: ELISA assay measuring the kinase activity of the FGF receptor (Myc-GyrB-FGFR from COS/FGFR cell lysate); format: biochemical; details: 7 μM ATP
Procedure: The following protocol describes the reagents and procedures used to analyze protein-tyrosine kinase activity of the Myc-GyrB-FGFR fusion protein.
Coat Corning 96 well ELISA plates with 1.0 μg/well of Rabbit αGyrB antibody in PBS for a total well volume of 100 μL. Store overnight at 4° C.
Remove unbound Rabbit antibody by inverting plate to remove liquid. Pat plate on a paper towel to remove excess liquid and bubbles
Add 100 μL of Blocking Buffer (TBB) to each well. Incubate while shaking on a microliter plate shaker at room temperature for 30 min.
Wash 4× with TBST. Pat plate on a paper towel to remove excess liquid and bubbles.
Add 15 μg COS/FGFR cell lysate Myc-GyrB-FGFR sources per well in HNTG for a final volume of 100 μL per well. Incubate while shaking on a micro-liter plate shaker at room temperature for 2 hours.
Wash 4× with TBST as described in step 4.
Add 80 μL of 1× kinase buffer per well.
Dilute compunds/extracts 1:10 (or as stated otherwise) in 1× kinase buffer +1% DMSO in a polypropylene 96 well plate.
At this point diluted Compounds/Extracts are added to the ELISA plate. […]

EGFR protein = molecular target: T2, EGFR protein (Homo sapiens, UniProt P00533); test: ELISA assay measuring the kinase activity of the EGF receptor (EGFR captured from A431 cell lysate); format: biochemical
T2 construct: A431 cell lysate; endogenous in cells; host or cells: A431
Procedure: The following protocol describes the reagents and procedures used to analyze protein tyrosine kinase activity on the EGFR protein.
All of the following steps are conducted at room temperature unless it is specifically indicated. All ELISA plate washing is by rinsing 4× with TBST.
1. Coat Corning 96 well ELISA plates with 0.5 μg/well of SUMO1 in a volume of 100 μL PBS. Store overnight at 4° C.
2. Remove unbound SUMO1 by inverting plate to remove liquid. Wash plates with distilled water. Pat plate on a paper towel to remove excess liquid and bubbles
3. Add 150 μL of Blocking Buffer to each well. Incubate while shaking on a microliter plate shaker at room temperature for 30 min.
4. Wash 3× with deionized water, then once with TBST. Pat plate on a paper towel to remove excess liquid and bubbles.
5. Dilute lysate in PBS (7 μg of lysate/100 μL of PBS).
6. Add 100 μL of diluted lysate to each well. Shake at room temperature for 60 min.
7. Wash as described in step 4.
8. Add 120 μL TBS to ELISA plate containing captured EGFR.
9. Dilute drugs/extracts 1:10 (unless specified otherwise) in TBS in 96-well polypropylene plates.
10. Add 13.5 μL diluted drugs/extracts to ELISA plate.
11. Incubate for 30 minutes while shaking at room temperture.
12. […] Incubate while shaking on a micro-liter plate shaker at room temperature for 5 min.
13. Stop Kinase reaction with the addition of 16.5 μL of 200 mM EDTA pH 8.0 to all wells.
14. Wash 4× with deionized water and twice with TBST.
15. Add 100 μL per well of anti-phosphotyrosine (1:3000 dilution in TBST). Incubate while shaking on a micro-liter plate shaker 30-45 minutes at room temperature while shaking.
16. Wash as described in step 4.
17. Add 100 μL per well of biosource Goat anti-rabbit IgG peroxidase conjugate (1:2000 dilution in TBST). Incubate 30 min. at room temerature while shaking.
18. Wash as described in step 4.
19. Add 100 μL of ABTS/H2O2 solution to each well.
20. Incubate 5 to 15 minutes while shaking. Remove any bubbles.
21. If necessary stop reaction with the addition of 10 μL of 0.2 M HCl/well.
22. Read assay on Dynatech MR7000 ELISA Plate Reader.
as §1

T1 sequence (P35918 20-1345): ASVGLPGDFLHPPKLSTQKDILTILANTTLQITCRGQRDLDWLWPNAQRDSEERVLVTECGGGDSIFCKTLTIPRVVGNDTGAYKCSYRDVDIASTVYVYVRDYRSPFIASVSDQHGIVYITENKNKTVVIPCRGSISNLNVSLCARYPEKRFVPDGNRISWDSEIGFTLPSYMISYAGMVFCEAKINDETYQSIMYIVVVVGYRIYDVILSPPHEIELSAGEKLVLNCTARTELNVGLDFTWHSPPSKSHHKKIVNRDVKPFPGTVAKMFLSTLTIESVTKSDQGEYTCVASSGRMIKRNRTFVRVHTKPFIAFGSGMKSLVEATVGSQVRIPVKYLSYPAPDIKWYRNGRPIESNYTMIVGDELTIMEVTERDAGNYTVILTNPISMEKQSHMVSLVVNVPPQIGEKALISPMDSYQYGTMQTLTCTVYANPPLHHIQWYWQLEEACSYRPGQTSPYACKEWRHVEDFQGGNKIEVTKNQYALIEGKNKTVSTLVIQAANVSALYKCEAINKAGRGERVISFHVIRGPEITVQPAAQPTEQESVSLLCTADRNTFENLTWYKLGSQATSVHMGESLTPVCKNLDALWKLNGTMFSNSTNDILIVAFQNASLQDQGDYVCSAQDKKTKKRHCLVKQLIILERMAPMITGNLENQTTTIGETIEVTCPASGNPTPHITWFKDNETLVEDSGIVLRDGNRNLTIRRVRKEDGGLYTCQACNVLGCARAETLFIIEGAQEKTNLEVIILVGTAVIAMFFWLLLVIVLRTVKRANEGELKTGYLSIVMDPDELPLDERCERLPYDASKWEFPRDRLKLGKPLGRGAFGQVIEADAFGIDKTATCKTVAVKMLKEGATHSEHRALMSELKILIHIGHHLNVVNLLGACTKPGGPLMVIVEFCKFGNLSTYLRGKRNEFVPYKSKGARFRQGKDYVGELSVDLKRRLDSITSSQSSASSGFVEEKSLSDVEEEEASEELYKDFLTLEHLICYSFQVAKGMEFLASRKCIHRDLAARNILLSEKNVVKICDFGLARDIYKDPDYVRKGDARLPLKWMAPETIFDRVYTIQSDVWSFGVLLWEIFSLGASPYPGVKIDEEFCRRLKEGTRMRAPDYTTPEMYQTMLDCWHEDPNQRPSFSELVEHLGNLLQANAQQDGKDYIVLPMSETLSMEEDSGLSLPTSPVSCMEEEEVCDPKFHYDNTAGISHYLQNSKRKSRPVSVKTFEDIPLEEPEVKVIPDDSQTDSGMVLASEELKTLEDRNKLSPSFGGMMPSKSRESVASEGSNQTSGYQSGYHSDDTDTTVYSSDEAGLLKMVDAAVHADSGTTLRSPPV
Myc-GyrB-FGFR fusion protein, sequence (P11362 398-822): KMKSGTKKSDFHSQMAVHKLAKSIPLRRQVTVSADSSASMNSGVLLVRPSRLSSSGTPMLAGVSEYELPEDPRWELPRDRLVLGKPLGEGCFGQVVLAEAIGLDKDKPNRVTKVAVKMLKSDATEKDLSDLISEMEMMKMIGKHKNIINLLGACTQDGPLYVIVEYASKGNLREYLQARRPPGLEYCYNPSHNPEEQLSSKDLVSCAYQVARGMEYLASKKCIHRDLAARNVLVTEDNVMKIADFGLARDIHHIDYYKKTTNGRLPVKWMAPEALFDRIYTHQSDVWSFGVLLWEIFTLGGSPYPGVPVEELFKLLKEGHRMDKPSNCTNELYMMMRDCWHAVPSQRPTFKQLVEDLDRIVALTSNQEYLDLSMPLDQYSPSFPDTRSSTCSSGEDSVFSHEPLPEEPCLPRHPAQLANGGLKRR
T2 sequence (P00533 25-1210): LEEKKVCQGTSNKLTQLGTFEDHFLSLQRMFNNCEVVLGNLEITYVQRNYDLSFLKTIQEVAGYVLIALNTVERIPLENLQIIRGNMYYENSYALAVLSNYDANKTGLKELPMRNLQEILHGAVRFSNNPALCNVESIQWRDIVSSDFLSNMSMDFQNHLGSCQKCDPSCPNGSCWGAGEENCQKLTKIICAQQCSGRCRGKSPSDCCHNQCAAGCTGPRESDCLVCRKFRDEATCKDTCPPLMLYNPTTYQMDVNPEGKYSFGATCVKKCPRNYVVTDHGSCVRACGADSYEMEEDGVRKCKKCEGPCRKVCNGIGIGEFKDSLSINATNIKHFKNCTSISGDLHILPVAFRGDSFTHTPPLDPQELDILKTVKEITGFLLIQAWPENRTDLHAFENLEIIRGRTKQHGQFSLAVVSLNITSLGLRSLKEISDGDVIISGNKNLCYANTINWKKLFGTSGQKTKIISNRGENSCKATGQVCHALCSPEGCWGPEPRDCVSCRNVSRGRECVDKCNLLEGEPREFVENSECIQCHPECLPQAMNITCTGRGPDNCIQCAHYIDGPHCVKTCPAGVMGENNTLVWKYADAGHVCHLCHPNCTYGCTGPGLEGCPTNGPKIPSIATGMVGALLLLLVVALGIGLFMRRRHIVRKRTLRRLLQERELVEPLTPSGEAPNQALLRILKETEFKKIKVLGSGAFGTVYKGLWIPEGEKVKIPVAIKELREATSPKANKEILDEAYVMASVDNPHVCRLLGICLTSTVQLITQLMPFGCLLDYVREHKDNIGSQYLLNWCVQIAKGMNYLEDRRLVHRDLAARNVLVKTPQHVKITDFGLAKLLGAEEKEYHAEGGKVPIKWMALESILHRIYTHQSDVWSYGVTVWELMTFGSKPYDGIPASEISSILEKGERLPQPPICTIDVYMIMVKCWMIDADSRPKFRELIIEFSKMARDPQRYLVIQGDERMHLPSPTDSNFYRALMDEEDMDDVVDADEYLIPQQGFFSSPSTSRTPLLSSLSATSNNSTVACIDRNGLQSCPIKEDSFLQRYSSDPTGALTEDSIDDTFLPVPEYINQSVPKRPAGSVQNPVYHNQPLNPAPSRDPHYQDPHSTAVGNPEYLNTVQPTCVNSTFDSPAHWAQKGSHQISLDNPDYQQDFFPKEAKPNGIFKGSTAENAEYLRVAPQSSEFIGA

Row | Compound | IC50 (FLK-1 receptor) [µM] | IC50 [1] [µM] | IC50 [2] [µM] | IC50 [3] [µM] | also measured
1 | O=C(O)CCc1c(C=C2C(=O)Nc3cc(-c4ccccc4)ccc32)[nH]c2c1CCCC2 [IN-017, 3-[2-(2-Oxo-6-phenyl-1,2-dihydro-indol-3-ylidenemethyl)-4,5,6,7-tetrahydro-1H-indol-3-yl]-propionic acid] | < 0.78 | – | – | – | –
2 | COc1ccccc1-c1ccc2c(c1)NC(=O)C2=Cc1[nH]c2c(c1CCC(=O)O)CCCC2 [IN-018, 3-{2-[6-(2-Methoxy-phenyl)-2-oxo-1,2-dihydro-indol-3-ylidenemethyl]-4,5,6,7-tetrahydro-1H-indol-3-yl}-propionic acid] | 2.7 | – | – | – | –
3 | CC(C)NS(=O)(=O)c1ccc2c(c1)C(=Cc1[nH]c3c(c1CCC(=O)O)CCCC3)C(=O)N2 [IN-019, 3-[2-(5-Isopropylaminosulfonyl-2-oxo-1,2-dihydro-indol-3-ylidenemethyl)-4,5,6 7-tetrahydro-1H-indol-3-yl]-propionic acid] | < 0.78 | – | – | – | –
4 | Cc1ccc2c(c1)C(=Cc1[nH]cc(C)c1CCC(=O)O)C(=O)N2 [IN-032, 3-[2-(5-Methyl-2-oxo-1,2-dihydro-indol-3-ylidenemethyl)-4-methyl-1H-pyrrol-3-yl]-propionic acid] | – | 30 | > 50 | 11 | –
5 | O=C(O)CCc1ccccc1/C=C1/C(=O)Nc2ccccc21 [IN-025, 3-[2-(2-Oxo-1,2-dihydro-indol-3-ylidenemethyl)-phenyl]-propionic acid] | – | – | – | – | IC50 [4]: 30.2 µM
6 | COc1cccc(-c2ccc3c(c2)NC(=O)C3=Cc2[nH]c3c(c2CCC(=O)O)CCCC3)c1 [IN-015, 3-{2-[6-(3-Methoxy-phenyl)-2-oxo-1,2-dihydro-indol-3-ylidenemethyl]-4,5,6,7-tetrahydro-1H-indol-3-yl}-propionic acid] | < 0.78 | – | – | – | –
7 | O=C(O)CCc1c(/C=C2\C(=O)Nc3ncccc32)[nH]c2c1CCCC2 [IN-014, 3-[2-(2-Oxo-1,2-dihydro-pyrrolo[2,3-b]pyridin-3-ylidenemethyl)-4,5,6,7-tetrahydro-1H-indol-3-yl]-propionic acid] | 0.14 | – | – | – | –
8 | COc1ccc2c(c1)C(=Cc1[nH]cc(C)c1CCC(=O)O)C(=O)N2 [IN-033, 3-[2-(5-Methoxy-2-oxo-1,2-dihydro-indol-3-ylidenemethyl)-4-methyl-1H-pyrrol-3-yl]-propionic acid] | – | 35 | > 50 | > 50 | IC50 (EGFR protein): > 100 µM
9 | O=C(O)CCc1c(C=C2C(=O)Nc3cc(Cl)ccc32)[nH]c2c1CCCC2 [IN-006, 3-[2-(6-Chloro-2-oxo-1,2-dihydro-indol-3-ylidenemethyl)-4,5,6,7-tetrahydro-1H-indol-3-yl]-propionic acid] | 0.031 | 30.2 | 63.6 | 3.7 | –

— patent US20040067531A1, “Methods of modulating protein tyrosine kinase function with substituted indolinone compounds” (SUGEN, INC., priority 1997, published 2004)
